In ChEMBL document CHEMBL4422610, “HDAC as onco target: Reviewing the synthetic approaches with SAR study of their inhibitors” (Eur J Med Chem, 2018) one finds IC50 data, which are given here for seven compounds.

Assay [1] has as its system HeLa. Kind of assay: cells. The settings on record: Homo sapiens, 48 h.
In assay [2] the target is Histone deacetylase 4 (Homo sapiens, UniProt P56524). Kind of assay: Inhibition of recombinant human HDAC4 expressed in HEK293T cells using Ac-KGLGK(Ac)-MCA as substrate measured after 30 mins by fluorescence assay.
Assay [3] concerns MCF7. Kind of assay: cells. The settings on record: Homo sapiens, MCF7, 48 h.
The target in assay [4] is T1, Protein deacetylase HDAC6 (Mus musculus, UniProt Q9Z2V5).
T1 sequence (Q9Z2V5 whole entry): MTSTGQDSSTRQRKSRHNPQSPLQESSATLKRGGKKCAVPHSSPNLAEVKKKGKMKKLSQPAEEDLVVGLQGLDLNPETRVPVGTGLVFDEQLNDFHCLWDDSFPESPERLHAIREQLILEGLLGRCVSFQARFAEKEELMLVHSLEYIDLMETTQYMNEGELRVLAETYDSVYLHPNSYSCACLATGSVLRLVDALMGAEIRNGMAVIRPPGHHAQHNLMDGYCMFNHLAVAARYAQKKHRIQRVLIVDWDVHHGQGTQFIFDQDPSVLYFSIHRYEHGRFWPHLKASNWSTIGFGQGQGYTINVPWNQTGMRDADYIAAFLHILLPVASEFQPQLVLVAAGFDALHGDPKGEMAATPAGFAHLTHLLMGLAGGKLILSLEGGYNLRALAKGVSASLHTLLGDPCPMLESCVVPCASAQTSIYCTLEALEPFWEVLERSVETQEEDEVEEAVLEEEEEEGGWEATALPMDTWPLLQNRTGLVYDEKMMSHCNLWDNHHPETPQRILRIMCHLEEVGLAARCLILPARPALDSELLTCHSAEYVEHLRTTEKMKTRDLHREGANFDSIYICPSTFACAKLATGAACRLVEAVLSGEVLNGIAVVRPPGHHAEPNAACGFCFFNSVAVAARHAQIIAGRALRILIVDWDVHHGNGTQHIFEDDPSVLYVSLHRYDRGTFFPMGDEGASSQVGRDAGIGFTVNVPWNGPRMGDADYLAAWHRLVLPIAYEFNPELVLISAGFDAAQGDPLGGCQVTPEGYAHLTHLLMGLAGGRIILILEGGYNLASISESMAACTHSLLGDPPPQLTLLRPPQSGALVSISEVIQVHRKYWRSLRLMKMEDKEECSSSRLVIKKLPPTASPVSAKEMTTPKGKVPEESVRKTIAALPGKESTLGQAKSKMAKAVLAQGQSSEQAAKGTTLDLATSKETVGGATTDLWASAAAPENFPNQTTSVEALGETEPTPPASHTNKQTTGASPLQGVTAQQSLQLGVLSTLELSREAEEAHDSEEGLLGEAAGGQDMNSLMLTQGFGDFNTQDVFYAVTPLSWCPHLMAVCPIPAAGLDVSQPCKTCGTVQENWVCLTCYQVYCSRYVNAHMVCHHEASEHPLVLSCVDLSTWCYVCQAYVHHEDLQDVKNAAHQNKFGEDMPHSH
Kind of assay: Inhibition of recombinant mouse HDAC6 expressed in HEK293T cells using Ac-KGLGK(Ac)-MCA as substrate measured after 30 mins by fluorescence assay.

Assay [5] deals with T2, Histone deacetylase 1 (Homo sapiens, UniProt Q13547). Kind of assay: Inhibition of recombinant human HDAC1 expressed in HEK293T cells using Ac-KGLGK(Ac)-MCA as substrate measured after 30 mins by fluorescence assay.
Assay [6] has as its system K562. Kind of assay: cells. The settings on record: Homo sapiens, K562, 48 h.
Assay [7] deals with MDA-MB-231. Kind of assay: cells. Conditions: Homo sapiens.
Assay [8] concerns the target T2, Histone deacetylase 1. Kind of assay: Inhibition of HDAC1 (unknown origin).
Assay [9] addresses T3, Protein deacetylase HDAC6 (Homo sapiens, UniProt Q9UBN7).
T3 sequence (Q9UBN7 whole entry): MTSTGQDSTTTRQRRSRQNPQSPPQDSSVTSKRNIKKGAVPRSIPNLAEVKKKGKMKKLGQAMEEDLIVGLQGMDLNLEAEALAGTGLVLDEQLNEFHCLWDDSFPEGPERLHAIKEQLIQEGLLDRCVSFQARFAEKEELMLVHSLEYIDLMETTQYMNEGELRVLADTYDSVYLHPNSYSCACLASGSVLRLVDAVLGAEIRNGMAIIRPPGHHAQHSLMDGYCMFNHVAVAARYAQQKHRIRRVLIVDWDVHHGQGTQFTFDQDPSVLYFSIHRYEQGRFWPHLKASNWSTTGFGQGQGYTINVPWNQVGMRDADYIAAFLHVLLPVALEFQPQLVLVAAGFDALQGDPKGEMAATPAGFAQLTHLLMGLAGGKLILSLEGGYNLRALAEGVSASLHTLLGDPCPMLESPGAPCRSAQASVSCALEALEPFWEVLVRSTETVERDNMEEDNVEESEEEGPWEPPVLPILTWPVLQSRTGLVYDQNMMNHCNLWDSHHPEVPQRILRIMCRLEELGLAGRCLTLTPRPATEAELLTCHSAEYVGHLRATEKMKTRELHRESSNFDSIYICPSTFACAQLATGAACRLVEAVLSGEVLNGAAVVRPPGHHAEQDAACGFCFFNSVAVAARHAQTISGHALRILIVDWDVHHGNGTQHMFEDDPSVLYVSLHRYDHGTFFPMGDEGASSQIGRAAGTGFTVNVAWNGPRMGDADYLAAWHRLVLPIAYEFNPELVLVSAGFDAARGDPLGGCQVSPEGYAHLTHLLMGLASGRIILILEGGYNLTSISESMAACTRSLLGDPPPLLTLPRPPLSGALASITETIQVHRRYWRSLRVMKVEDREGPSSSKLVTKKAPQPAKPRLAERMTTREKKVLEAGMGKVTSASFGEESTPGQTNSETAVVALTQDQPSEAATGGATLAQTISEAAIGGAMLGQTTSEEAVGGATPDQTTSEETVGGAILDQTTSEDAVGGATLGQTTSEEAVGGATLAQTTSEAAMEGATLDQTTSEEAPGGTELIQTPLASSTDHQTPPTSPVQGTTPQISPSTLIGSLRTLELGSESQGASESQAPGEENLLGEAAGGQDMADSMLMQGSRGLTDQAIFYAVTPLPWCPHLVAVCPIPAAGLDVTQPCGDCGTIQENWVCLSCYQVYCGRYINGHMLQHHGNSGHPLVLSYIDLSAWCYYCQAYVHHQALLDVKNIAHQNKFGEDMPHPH
Kind of assay: Inhibition of HDAC6 (unknown origin).

Assay [10] deals with T4, Histone deacetylase 8 (Homo sapiens, UniProt Q9BY41).
T4 sequence (Q9BY41 whole entry): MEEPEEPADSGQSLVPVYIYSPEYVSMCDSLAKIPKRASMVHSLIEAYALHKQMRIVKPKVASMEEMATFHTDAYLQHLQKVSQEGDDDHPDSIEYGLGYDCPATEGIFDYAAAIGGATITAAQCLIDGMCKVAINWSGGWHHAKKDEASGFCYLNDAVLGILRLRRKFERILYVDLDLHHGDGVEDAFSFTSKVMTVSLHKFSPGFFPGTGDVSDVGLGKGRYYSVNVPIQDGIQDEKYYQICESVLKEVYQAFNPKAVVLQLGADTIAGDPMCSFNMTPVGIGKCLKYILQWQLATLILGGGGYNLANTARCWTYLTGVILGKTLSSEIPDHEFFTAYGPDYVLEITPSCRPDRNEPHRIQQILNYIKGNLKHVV
Kind of assay: Inhibition of HDAC8 (unknown origin).

The target of assay [11] is Histone deacetylase. In kind it is cell-based, Homo sapiens. The settings on record: hela.
The target in assay [12] is Histone deacetylase. In kind it is cell-based, Homo sapiens. The settings on record: hela. The source holds these as a separate data set.

T2 sequence (Q13547 whole entry): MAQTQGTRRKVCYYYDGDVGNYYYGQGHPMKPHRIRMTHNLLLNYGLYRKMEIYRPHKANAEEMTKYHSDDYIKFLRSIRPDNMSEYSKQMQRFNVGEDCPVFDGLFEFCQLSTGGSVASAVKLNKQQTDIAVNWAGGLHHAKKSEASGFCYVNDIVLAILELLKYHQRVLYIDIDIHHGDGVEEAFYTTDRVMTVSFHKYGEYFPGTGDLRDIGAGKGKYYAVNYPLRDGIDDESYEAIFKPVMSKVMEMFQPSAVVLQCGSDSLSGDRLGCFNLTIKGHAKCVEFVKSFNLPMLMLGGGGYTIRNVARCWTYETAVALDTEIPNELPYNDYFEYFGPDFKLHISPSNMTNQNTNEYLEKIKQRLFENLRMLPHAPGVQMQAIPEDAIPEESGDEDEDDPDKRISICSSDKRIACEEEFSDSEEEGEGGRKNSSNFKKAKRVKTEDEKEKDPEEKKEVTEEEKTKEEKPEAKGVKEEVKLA
Sequence of Histone deacetylase 4 (P56524 whole entry): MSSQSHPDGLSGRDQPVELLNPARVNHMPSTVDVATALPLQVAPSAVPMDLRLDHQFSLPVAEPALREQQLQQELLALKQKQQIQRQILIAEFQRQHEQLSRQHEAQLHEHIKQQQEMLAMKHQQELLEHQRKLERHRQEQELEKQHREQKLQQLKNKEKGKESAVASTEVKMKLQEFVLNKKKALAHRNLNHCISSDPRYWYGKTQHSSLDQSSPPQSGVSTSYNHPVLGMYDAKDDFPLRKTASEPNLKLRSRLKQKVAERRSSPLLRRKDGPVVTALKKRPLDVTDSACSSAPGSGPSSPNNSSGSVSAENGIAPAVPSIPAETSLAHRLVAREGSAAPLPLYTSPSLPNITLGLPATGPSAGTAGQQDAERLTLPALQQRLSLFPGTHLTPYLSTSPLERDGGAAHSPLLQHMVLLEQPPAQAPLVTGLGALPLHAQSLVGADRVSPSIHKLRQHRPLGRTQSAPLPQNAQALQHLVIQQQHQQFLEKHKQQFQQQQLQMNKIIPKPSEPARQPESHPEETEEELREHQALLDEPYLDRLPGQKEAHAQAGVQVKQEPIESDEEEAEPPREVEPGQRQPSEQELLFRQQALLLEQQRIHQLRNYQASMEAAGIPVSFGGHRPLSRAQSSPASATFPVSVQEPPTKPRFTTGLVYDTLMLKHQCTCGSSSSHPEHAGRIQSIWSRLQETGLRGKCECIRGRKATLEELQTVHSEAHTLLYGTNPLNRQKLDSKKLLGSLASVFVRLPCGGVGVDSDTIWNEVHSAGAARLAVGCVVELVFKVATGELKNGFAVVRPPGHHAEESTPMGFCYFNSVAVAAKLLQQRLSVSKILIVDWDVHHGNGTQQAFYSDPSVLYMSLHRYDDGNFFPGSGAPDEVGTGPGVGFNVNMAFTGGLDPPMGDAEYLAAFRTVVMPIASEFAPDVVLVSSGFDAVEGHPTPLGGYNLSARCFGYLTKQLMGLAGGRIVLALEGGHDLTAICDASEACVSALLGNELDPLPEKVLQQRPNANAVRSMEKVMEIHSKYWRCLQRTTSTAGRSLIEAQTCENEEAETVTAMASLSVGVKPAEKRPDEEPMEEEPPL

With `CC1CCCC2(C1)NC(=O)[C@H](CCCCCC(=O)NO)NC(=O)[C@H]1CCCN1C(=O)[C@H](Cc1ccccc1)NC2=O` (some centres undefined), the IC50 (in general, the point on the concentration scale where inhibition reaches its midpoint) worked out at 0.048 µM in assay [1]; 0.014 µM in assay [2]; 0.026 µM in [3]; 0.16 µM in [4]; 0.015 µM in assay [5]; 0.104 µM in assay [6].

In assay [7], `O=C(CCCCCCC(=O)Nc1ccccc1)NO` [VORINOSTAT] showed an IC50 of 2.14 µM.

As to `C[C@]12CC[C@@H]3c4ccc(O)cc4CC[C@H]3[C@@H]1CC[C@@]2(O)c1cn(CCCCCCCC(=O)NO)nn1`, the figures for the IC50 in assay [8], in [9] and in [10] were 0.028 µM, 0.013 µM and 0.45 µM, respectively.

In the case of `CC1CCCCC12NC(=O)[C@H](CCCCCC(=O)NO)NC(=O)[C@H]1CCCN1C(=O)[C@H](Cc1ccccc1)NC2=O` (some centres undefined), the IC50 amounted to 0.309 µM in assay [1]; 0.006 µM in assay [2]; 0.031 µM in [3]; 0.13 µM in [4]; 0.01 µM in assay [5]; 0.876 µM in assay [6].

In the case of `C[C@]12CC[C@@H]3c4ccc(O)cc4CC[C@H]3[C@@H]1CC[C@@]2(O)c1cn(CCCCC(=O)NO)nn1`, the 50% inhibitory concentration (IC50) worked out at 0.015 µM in assay [8], 0.008 µM in assay [9] and 11 µM in assay [10].

`C[C@]12CC[C@@H]3c4ccc(O)cc4CC[C@H]3[C@@H]1CC[C@@]2(O)c1cn(CCCCCCC(=O)NO)nn1`: the values for the IC50 in assay [8], in assay [9] and in [10] were 0.075 µM, 0.032 µM and 4 µM, respectively.

For `CCn1cnc(-c2ccc(OC)cc2)c1-c1ccc(/C=C/C(=O)NO)cc1`, the IC50 in assay [11] came out at 0.036 µM; in assay [12] it was 0.504 µM.
